Measurements: patent publication US11299467B2 (Antabio SAS, priority 2017, dated 2022)
Read-outs that look alike come from different tables or passages of the source.

Assays:
Assay type in all cases: biochemical
[1] = target: IMP-1 (Serratia marcescens, UniProt P52699); assay: In vitro enzyme inhibition assay, purified IMP-1 (imipenem hydrolysis, UV 299 nm)
Procedure: (§1) Enzyme inhibition assays were performed using purified MBL enzymes (NDM-1; VIM-1; VIM-2; IMP-1) in 10 mM HEPES buffer pH 7.5 in 96-well microtiter plates. Imipenem (300 μM) was used as substrate and its hydrolysis was followed at UV 299 nm during 10 mn every 30 seconds using a Perkin Elmer Envision UV fluorescence plate reader.
(§2) Mean Ki values from multiple experiments are presented below.
(§3) Studies were undertaken to compare the compounds of the invention with structurally similar compounds (“Comp. x”). Experiments were conducted as described above.

[2] = target: VIM-1 (Pseudomonas aeruginosa, UniProt A0A0F7KYQ8); assay: In vitro enzyme inhibition assay, purified VIM-1 (imipenem hydrolysis, UV 299 nm)
Procedure: as §1, §2, §3

[3] = target: NDM-1 (Klebsiella pneumoniae, UniProt C7C422); assay: In vitro enzyme inhibition assay, purified NDM-1 (imipenem hydrolysis, UV 299 nm)
Procedure: as §1, §2, §3

[4] = target: VIM-2 (Escherichia coli, UniProt Q5U7L7); assay: In vitro enzyme inhibition assay, purified VIM-2 (imipenem hydrolysis, UV 299 nm)
Procedure: as §1, §2, §3

[5] = mean Ki from multiple experiments, imipenem 300 μM, Cheng-Prusoff from IC50, read-out: Ki IMP-1
[6] = mean Ki from multiple experiments, imipenem 300 μM, Cheng-Prusoff from IC50, read-out: Ki VIM-1
[7] = mean Ki from multiple experiments, imipenem 300 μM, Cheng-Prusoff from IC50, read-out: Ki NDM-1
[8] = mean Ki from multiple experiments, imipenem 300 μM, Cheng-Prusoff from IC50, read-out: Ki VIM-2
[9] = comparative study bands, read-out: Ki VIM-1 (comparative study)
[10] = comparative study bands, read-out: Ki NDM-1 (comparative study)
[11] = comparative study bands, read-out: Ki IMP-1 (comparative study)
[12] = comparative study bands, read-out: Ki VIM-2 (comparative study)

NDM-1, sequence (C7C422 29-270, looked up): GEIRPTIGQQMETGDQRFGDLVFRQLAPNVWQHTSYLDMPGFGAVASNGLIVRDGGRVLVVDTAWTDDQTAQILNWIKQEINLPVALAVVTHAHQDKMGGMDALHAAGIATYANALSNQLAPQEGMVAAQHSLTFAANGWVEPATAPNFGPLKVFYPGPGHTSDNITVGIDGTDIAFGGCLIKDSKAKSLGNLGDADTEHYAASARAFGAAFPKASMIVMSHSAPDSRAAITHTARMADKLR
IMP-1, sequence (P52699 19-246, looked up, species assumed): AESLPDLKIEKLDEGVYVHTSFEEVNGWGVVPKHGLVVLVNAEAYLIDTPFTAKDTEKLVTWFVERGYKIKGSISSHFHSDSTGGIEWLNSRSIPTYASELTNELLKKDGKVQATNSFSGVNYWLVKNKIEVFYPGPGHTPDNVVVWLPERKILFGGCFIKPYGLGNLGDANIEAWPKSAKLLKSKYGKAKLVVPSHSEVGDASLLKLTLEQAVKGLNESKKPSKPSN

Row | Compound | Ki [1, 5] [nM] | Ki [2, 6] [nM] | Ki [3, 7] [nM] | Ki [4, 8] [nM] | Ki [2, 9] [nM] | Ki [3, 10] [nM] | Ki [1, 11] [nM] | Ki [4, 12] [nM]
1 | CN(CC(=O)Nc1ccc(S(=O)(=O)Nc2scnc2C(=O)O)cc1F)C(=N)N [Example 8, 5-[[4-[[2-[carbamimidoyl(methyl)amino]acetyl]amino]-3-fluoro-phenyl]sulfonylamino]thiazole-4-carboxylic acid] | 1000 to 10000 | 200 to 500 | 50 to 200 |  |  |  |  | 
2 | N=C(N)CC(=O)Nc1ccc(S(=O)(=O)Nc2scnc2C(=O)O)cc1F [Example 4, 5-[[4-[(3-amino-3-imino-propanoyl)amino]-3-fluoro-phenyl]sulfonylamino]thiazole-4-carboxylic acid] | 1000 to 10000 | 200 to 500 | < 50 | 20 to 50 |  |  |  | 
3 | N#Cc1cc(S(=O)(=O)Nc2scnc2C(=O)O)ccc1NC(=O)CN [Comp. F, reference compound] |  |  |  |  | 150 to 300 |  |  | 
4 | O=C(CNC1=NCCN1)Nc1cc(F)c(S(=O)(=O)Nc2scnc2C(=O)O)cc1F [Example 10, 5-[[4-[[2-(4,5-dihydro-1H-imidazol-2-ylamino)acetyl]amino]-2,5-difluoro-phenyl]sulfonylamino]thiazole-4-carboxylic acid] | 500 to 1000 | < 200 | < 50 | < 20 |  |  |  | 
5 | N=C(N)NNC(=O)Cc1ccc(S(=O)(=O)Nc2scnc2C(=O)O)cc1F [Example 24, 5-[[4-[2-(2-carbamimidoylhydrazino)-2-oxo-ethyl]-3-fluoro-phenyl]sulfonylamino]thiazole-4-carboxylic acid] | 1000 to 10000 | 500 to 1000 | 50 to 200 |  |  |  |  | 
6 | N=C(N)NCC(=O)Nc1ccc(S(=O)(=O)Nc2scnc2C(=O)O)cc1 [Example 20, 5-[[4-[(2-guanidinoacetyl)amino]phenyl]sulfonylamino]thiazole-4-carboxylic acid] |  | 200 to 500 | 50 to 200 |  | 150 to 300 | 100 to 300 |  | 
7 | N#Cc1cc(S(=O)(=O)Nc2scnc2C(=O)O)ccc1NC(=O)CN [Comp. D, reference compound] |  |  |  |  | 500 to 1000 | 30 to 100 | 150 to 600 | 20 to 50
8 | N=C(N)CC(=O)Nc1c(F)cc(S(=O)(=O)Nc2scnc2C(=O)O)cc1F [Example 13, 5-[[4-[(3-amino-3-imino-propanoyl)amino]-3,5-difluoro-phenyl]sulfonylamino]thiazole-4-carboxylic acid] | 500 to 1000 | < 200 | < 50 | 50 to 150 |  |  |  | 
9 | O=C(CC1=NCCN1)Nc1ccc(S(=O)(=O)Nc2scnc2C(=O)O)cc1F [Example 21, 5-[[4-[[2-(4,5-dihydro-1H-imidazol-2-yl)acetyl]amino]-3-fluoro-phenyl]sulfonylamino]thiazole-4-carboxylic acid] | 500 to 1000 | 200 to 500 | < 50 |  |  |  |  | 
10 | NCC(=O)Nc1ccc(S(=O)(=O)Nc2scnc2C(=O)O)cc1 [Comp. H, reference compound] |  |  |  |  | 500 to 1000 | 100 to 300 | 5000 to 10000 | 20 to 50
11 | NNC(=O)Nc1ccc(S(=O)(=O)Nc2scnc2C(=O)O)cc1F [Comp. I, reference compound] |  |  |  |  | 500 to 1000 | 100 to 300 | 600 to 5000 | 
12 | N=C(N)NCC(=O)Nc1cc(F)c(S(=O)(=O)Nc2scnc2C(=O)O)cc1F [Example 9, 5-[[2,5-difluoro-4-[(2-guanidinoacetyl)amino]phenyl]sulfonylamino]thiazole-4-carboxylic acid] | 1000 to 10000 | 200 to 500 | 50 to 200 | < 20 |  |  |  | 
13 | C[C@@H](NC(=N)N)C(=O)Nc1ccc(S(=O)(=O)Nc2scnc2C(=O)O)cc1 [Example 11, 5-[[4-[[(2R)-2-guanidinopropanoyl]amino]phenyl]sulfonylamino]thiazole-4-carboxylic acid] | 1000 to 10000 | 200 to 500 | 200 to 2000 |  |  |  |  | 
14 | CN(C)C(=N)CC(=O)Nc1ccc(S(=O)(=O)Nc2scnc2C(=O)O)cc1F [Example 12, 5-[[4-[[3-(dimethylamino)-3-imino-propanyl]amino]-3-fluoro-phenyl]sulfonylamino]thiazole-4-carboxylic acid] | 500 to 1000 | 200 to 500 | 50 to 200 |  |  |  |  | 
15 | N=C(N)NCC(=O)Nc1ccc(S(=O)(=O)Nc2scnc2C(=O)O)cc1C(N)=O [Example 6, 5-[[3-carbamoyl-4-[(2-guanidinoacetyl)amino]phenyl]sulfonylamino]thiazole-4-carboxylic acid] | 1000 to 10000 | 200 to 500 | 200 to 2000 |  |  |  |  | 
16 | N=C(N)NCC(=O)Nc1ccc(S(=O)(=O)Nc2scnc2C(=O)O)nn1 [Example 14, 5-[[6-[(2-guanidinoacetyl)amino]pyridazin-3-yl]sulfonylamino]thiazole-4-carboxylic acid] | 1000 to 10000 | 200 to 500 | 200 to 2000 |  |  |  |  | 
17 | O=C(CNC1=NCCN1)Nc1c(F)cc(S(=O)(=O)Nc2scnc2C(=O)O)cc1F [Example 15, 5-[[4-[[2-(4,5-dihydro-1H-imidazol-2-ylamino)acetyl]amino]-3,5-difluoro-phenyl]sulfonylamino]thiazole-4-carboxylic acid] | 1000 to 10000 | 500 to 1000 | 50 to 200 |  |  |  |  | 

Now from value to compound:

Row | Ki [1, 5] [nM] | Ki [2, 6] [nM] | Ki [3, 7] [nM] | Ki [4, 8] [nM] | Ki [2, 9] [nM] | Ki [3, 10] [nM] | Ki [1, 11] [nM] | Ki [4, 12] [nM] | Compound
18 | 1000 to 10000 | 500 to 1000 | 200 to 2000 | 50 to 150 |  |  |  |  | N=C(N)NCC(=O)NCc1ccc(S(=O)(=O)Nc2scnc2C(=O)O)cc1F [Example 45, 5-[[3-fluoro-4-[[(2-guanidinoacetyl)amino]methyl]phenyl]sulfonylamino]thiazole-4-carboxylic acid]
19 | 500 to 1000 | 200 to 500 | < 50 | 20 to 50 |  |  |  |  | N=C(N)NNCC(=O)Nc1ccc(S(=O)(=O)Nc2scnc2C(=O)O)cc1F [Example 41, 5-[[4-[[2-(2-carbamimidoylhydrazino)acetyl]amino]-3-fluoro-phenyl]sulfonylamino]thiazole-4-carboxylic acid]
20 | 1000 to 10000 | 200 to 500 | 200 to 2000 |  |  |  |  |  | N=C(NCC(=O)Nc1ccc(S(=O)(=O)Nc2scnc2C(=O)O)cc1F)N1CCOCC1 [Example 33, 5-[[3-fluoro-4-[[2-(morpholine-4-carboximidoylamino)acetyl]amino]phenyl]sulfonylamino]thiazole-4-carboxylic acid]
21 | 1000 to 10000 | 200 to 500 | 200 to 2000 |  |  |  |  |  | CNC(=N)NCC(=O)Nc1ccc(S(=O)(=O)Nc2scnc2C(=O)O)cc1F [Example 40, 5-[[3-fluoro-4-[[2-[(N-methylcarbamimidoyl)amino]acetyl]amino]phenyl]sulfonylamino]thiazole-4-carboxylic acid]
22 | 1000 to 10000 | 200 to 500 | < 50 | 20 to 50 | 150 to 300 | < 30 | 600 to 5000 | 20 to 50 | N=C(N)NNC(=O)Nc1ccc(S(=O)(=O)Nc2scnc2C(=O)O)cc1F [Example 29, 5-[[3-fluoro-4-(guanidinocarbamoylamino)phenyl]sulfonylamino]thiazole-4-carboxylic acid]
23 | < 500 | 200 to 500 | 50 to 200 |  |  |  |  |  | N=C(N)N/N=C/C(=O)Nc1ccc(S(=O)(=O)Nc2scnc2C(=O)O)cc1F [Example 43, 5-[[4-[[(2E)-2-(carbamimidoylhydrazono)acetyl]amino]-3-fluoro-phenyl]sulfonylamino]thiazole-4-carboxylic acid]
24 | 1000 to 10000 | < 200 | 200 to 2000 | 20 to 50 |  |  |  |  | N=C(NCCN)NCC(=O)Nc1ccc(S(=O)(=O)Nc2scnc2C(=O)O)cc1F [Example 39, 5-[[4-[[2-[[N-(2-aminoethyl)carbamimidoyl]amino]acetyl]amino]-3-fluoro-phenyl]sulfonylamino]thiazole-4-carboxylic acid]
25 | 1000 to 10000 | 200 to 500 | < 50 | 20 to 50 |  |  |  |  | N=C(N)CNC(=O)Nc1ccc(S(=O)(=O)Nc2scnc2C(=O)O)cc1F [Example 30, 5-[[4-[(2-amino-2-imino-ethyl)carbamoylamino]-3-fluoro-phenyl]sulfonylamino]thiazole-4-carboxylic acid]
26 | 1000 to 10000 | < 200 | 200 to 2000 |  |  |  |  |  | CC(C(=N)N)C(=O)Nc1ccc(S(=O)(=O)Nc2scnc2C(=O)O)cc1F (centres unmarked) [Example 37, 5-[[4-[(3-amino-3-imino-2-methyl-propanoyl)amino]-3-fluoro-phenyl]sulfonylamino]thiazole-4-carboxylic acid]
27 | 500 to 1000 | 200 to 500 | 50 to 200 |  |  |  |  |  | N=C(N)CNC(=O)Cc1ccc(S(=O)(=O)Nc2scnc2C(=O)O)cc1F [Example 25, 5-[[4-[2-[(2-amino-2-imino-ethyl)amino]-2-oxo-ethyl]-3-fluoro-phenyl]sulfonylamino] thiazole-4-carboxylic acid]
28 | 1000 to 10000 | 200 to 500 | 200 to 2000 |  |  |  |  |  | N=C1NCCN1CC(=O)Nc1ccc(S(=O)(=O)Nc2scnc2C(=O)O)cc1F [Example 38, 5-[[3-fluoro-4-[[2-(2-iminoimidazolidin-1-yl)acetyl]amino]phenyl]sulfonylamino]thiazole-4-carboxylic acid]
29 | 1000 to 10000 | 500 to 1000 | 200 to 2000 |  |  |  |  |  | N=C(N)NOCC(=O)Nc1ccc(S(=O)(=O)Nc2scnc2C(=O)O)cc1F [Example 42, 5-[[3-fluoro-4-[(2-guanidinooxyacetyl)amino]phenyl]sulfonylamino]thiazole-4-carboxylic acid]
